Laboratory results from patent US8829014B2, “Thiazole and thiophene analogues, and their use in treating autoimmune diseases and cancers” (Board of Supervisors of Louisiana State University and …, priority 2006, dated 2014).
Like-named read-outs stand apart in the source and are kept apart here.

Legend:
[1] = test system: NF-κB; experiment: NF-κB inhibitor screen: basal NF-κB-dependent luciferase expression in HEK/NF-κB cell line; type: cell-based; details: for inhibition at 1 µM: determined as described in Example 398, read-out: NFkB inhibition @ 1 uM
Source text: Development of NF-κB and AP-1 Screens: Two HEK293 cell lines were purchased from Panomics. One cell line was stably transfected with a plasmid in which luciferase expression is regulated by six copies of the NF-κB transcriptional element (5′-[…]-3′); and the other cell line was stably transfected with a plasmid in which luciferase expression is regulated by three copies of the AP-1 transcriptional element (TGACTAA). To test the biological activity of the promoters, the HEK/NF-κB cell line was stimulated with TNF-α (20 ng/ml) for 24 hours, and the HEK/AP-1 cell line was stimulated with PMA (10 ng/ml) for 24 hours. […] In addition, a pyrimidine carboxyimide that had previously been shown (ref. 58) to be an inhibitor of transcription mediated by NF-κB and AP-1 reduced luciferase activity by approximately 40% in each of the NF-κB and AP-1 cell lines.
The above two assays analyzed the effects of the compounds on post-transcriptional gene regulation, which is known to play a key role in cancer and inflammation. By contrast, the NF-κB assay and the following assay (AP-1) test whether the compounds act at the transcriptional level. Thirty-nine representative compounds were screened in an HEK/NF-κB cell line. HEK cells were stably transfected with a plasmid expressing luciferase under the control of the NF-κB promoter. These transfected cells were plated on a 96-well plate. As above, initial screening was carried out at 1.0 μM by adding compound in DMSO (0.3%) twenty-four hours after plating. Each compound was added to each of triplicate wells. DMSO (0.3%) was added to one set of wells as a control. Luciferase activity was determined using Promega's Brite-Glo kit, and the mean for each sample was normalized to that for DMSO.
The fourteen representative compounds identified in the eIF4E screen as interesting (Numbered 2, 3, 4, 6, 8, 11, 15, 20, 21, 24, 25, 32, 33, and 35) were then tested for luciferase activity in a six-point dose response (10 nM, 33 nM, 100 nM, 330 nM, 1000 nM, and 3300 nM). Screening was carried out as described above by monitoring the effects of the compounds on basal NF-κB-dependent luciferase expression. Each dose was used out in triplicate, and repeated between two and four times. Results were normalized by the average expression level at the lowest concentration level, as described above.

[2] = test system: AP-1; experiment: AP-1 inhibitor screen: basal AP-1-dependent luciferase expression in HEK/AP-1 cell line; type: cell-based; details: AP1; 1 uM; determined as described in Example 398
Source text: Development of NF-κB and AP-1 Screens: Two HEK293 cell lines were purchased from Panomics. One cell line was stably transfected with a plasmid in which luciferase expression is regulated by six copies of the NF-κB transcriptional element (5′-[…]-3′); and the other cell line was stably transfected with a plasmid in which luciferase expression is regulated by three copies of the AP-1 transcriptional element (TGACTAA). To test the biological activity of the promoters, the HEK/NF-κB cell line was stimulated with TNF-α (20 ng/ml) for 24 hours, and the HEK/AP-1 cell line was stimulated with PMA (10 ng/ml) for 24 hours.
HEK cells were stably transfected with a plasmid expressing luciferase under the control of the AP-1 promoter. The transfected cells were plated on a 96-well plate for 24 hr. Then 1.0 μM of each compound in DMSO (0.3%) was added to triplicate wells and incubated for 48 hr. DMSO (0.3%) was added to one set of triplicate wells as a control. Luciferase activity was determined using Promega's Brite-Glo kit, and the mean for each sample was normalized to that for DMSO.
Screening was carried out as described above, monitoring the compounds' effects on basal AP-1-dependent luciferase expression. Each dose-response experiment was carried out in triplicate and repeated between two and four times.

[3] = test system: carageenan-induced edema; experiment: Carrageenan-induced rat paw edema test (anti-inflammatory activity); type: in vivo, Sprague-Dawley rats; details: po, 3 h, carrageenan-induced rat paw edema, defined in Example 397, read-out: % Protection
Method in brief: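 Edema was raised by sub-plantar injection of 1% carrageenan into the right hind paw, 1 h after dosing 18 h-fasted male/female Sprague-Dawley rats (150-250 g) with 50 mg/kg p.o. in 0.1% CMC. Swelling was measured by displacement 3 h later and expressed as % protection against saline control.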

Cc1nc(Nc2ccccc2)sc1-c1nc2ccccc2c(=O)n1-c1ccccc1 [Example 157, 2-(4-Methyl-2-phenylamino-thiazol-5-yl)-3-phenyl-3H-quinazolin-4-one] was tested, and the inhibition at 1 µM [1] was 25%, the inhibition at 1 µM [2] was 16% and the inhibition in vivo at 50 mg/kg ([3]; Rattus norvegicus) was 12%.
Molecule COc1ccc(-n2c(-c3sc(Nc4ccc(Cl)cc4)nc3C)nc3ccccc3c2=O)cc1 [Example 217, 2-[2-(4-Chlorophenylamino)-4-methyl-thiazol-5-yl]-3-(4-methoxyphenyl)-3H-quinazolin-4-one] has an inhibition at 1 µM [1] of -38%, an inhibition at 1 µM [2] of -43% and an inhibition in vivo at 50 mg/kg ([3]; Rattus norvegicus) of 50%.
In the case of COC(=O)Nc1nc(C)c(-c2nc3ccccc3c(=O)n2-c2ccccc2)s1 [Example 155, (4-Methyl-5-(4-oxo-3-phenyl-3,4-dihydro-quinazolin-2-yl)-thiazol-2-yl)-carbamic acid methyl ester], the inhibition at 1 µM [1] was 24%, the inhibition at 1 µM [2] was -1% and the inhibition in vivo at 50 mg/kg ([3]; Rattus norvegicus) was 0%.
For Cc1nc(Nc2ccc(Cl)cc2)sc1-c1nc2ccccc2c(=O)n1-c1ccc(Cl)cc1 [Example 246, 2-[2-(4-Chlorophenylamino)-4-methyl-thiazol-5-yl]-3-(4-chloro-phenyl)-3H-quinazolin-4-one], the inhibition at 1 µM [1] was 96%, the “inhibition of basal NF-κB-dependent luciferase expression” value ([1]; 3.3 μM (FIG. 12)) was “about 50%” and the inhibition at 1 µM [2] was 74%. The inhibition in vivo at 50 mg/kg [3] was 38%.
For CNc1nc(-c2ccccc2)c(-c2nc3ccccc3c(=O)n2-c2ccccc2OC)s1 [Example 205, 2-(2-Methylamino-4-phenyl-thiazol-5-yl)-3-(2-methoxyphenyl)-3H-quinazolin-4-one], the inhibition at 1 µM [1] was 61%, the inhibition at 1 µM [2] was 90% and the inhibition in vivo at 50 mg/kg ([3]; Rattus norvegicus) was 56%.
With Cc1cccc(-n2c(-c3sc(Nc4ccc(Cl)cc4)nc3-c3ccccc3)nc3ccccc3c2=O)c1 [Example 189, 2-[2-(4-Chloro-phenylamino)-4-phenyl-thiazol-5-yl]-3-m-tolyl-3H-quinazolin-4-one] the inhibition at 1 µM [1] was -4%, the inhibition at 1 µM [2] was 83% and the inhibition in vivo at 50 mg/kg ([3]; Rattus norvegicus) was 38%.
CCOC(=O)Nc1nc(-c2ccccc2)c(-c2nc3ccccc3c(=O)n2-c2ccc(C)cc2)s1 [Example 193, [5-(4-Oxo-3-p-tolyl-3,4-dihydro-quinazolin-2-yl)-4-phenyl-thiazol-2-yl]-carbamic acid ethyl ester] gave an inhibition at 1 µM [1] of 2%, an inhibition at 1 µM [2] of 11% and an inhibition in vivo at 50 mg/kg ([3]; Rattus norvegicus) of 31%.
Work on Cc1nc(Nc2ccccc2)sc1-c1nc2ccccc2c(=O)n1-c1ccc(Cl)cc1 [Example 245, 2-(4-Methyl-2-phenylamino-thiazol-5-yl)-3-(4-chloro-phenyl)-3H-quinazolin-4-one] yielded an inhibition at 1 µM [1] of 79%, an inhibition at 1 µM [2] of 82% and an inhibition in vivo at 50 mg/kg ([3]; Rattus norvegicus) of 72%.
For CC(=O)c1ccc(-n2c(-c3sc(Nc4ccc(Cl)cc4)nc3-c3ccccc3)nc3ccccc3c2=O)cc1 [Example 271, 2-[2-(4-Chlorophenylamino)-4-phenyl-thiazol-5-yl]-3-(4-acetyl-phenyl)-3H-quinazolin-4-one], the inhibition at 1 µM [1] was -12%, the inhibition at 1 µM [2] was 31% and the inhibition in vivo at 50 mg/kg ([3]; Rattus norvegicus) was 23%.
CCOC(=O)Nc1nc(-c2ccccc2)c(-c2nc3ccccc3c(=O)n2-c2ccccc2C)s1 [Example 171, [5-(4-Oxo-3-o-tolyl-3,4-dihydro-quinazolin-2-yl)-4-phenyl-thiazol-2-yl]-carbamic acid ethyl ester] was tested, and the inhibition at 1 µM [1] was 23%, the inhibition at 1 µM [2] was 52% and the inhibition in vivo at 50 mg/kg ([3]; Rattus norvegicus) was 52%.
For CCOC(=O)Nc1nc(-c2ccccc2)c(-c2nc3ccccc3c(=O)n2-c2ccc(Cl)cc2)s1 [Example 249, [5-(4-Oxo-3-(4-Chloro-phenyl)-3,4-dihydro-quinazolin-2-yl)-4-phenyl-thiazol-2-yl]-carbamic acid ethyl ester], the inhibition at 1 µM [1] was 16%, the inhibition at 1 µM [2] was 0% and the inhibition in vivo at 50 mg/kg ([3]; Rattus norvegicus) was 81%.
Cc1ccccc1-n1c(-c2sc(Nc3ccccc3)nc2C)nc2ccccc2c1=O [Example 169, 2-(4-Methyl-2-phenylamino-thiazol-5-yl)-3-o-tolyl-3H-quinazolin-4-one] gave an inhibition at 1 µM [1] of 21%, an inhibition at 1 µM [2] of 60% and an inhibition in vivo at 50 mg/kg ([3]; Rattus norvegicus) of 42%.
